Data reported in US20240246908A1 (ORION CORPORATION, priority 2021, published 2024).

System: YAP-TEAD
Test: TEAD inhibition, Hippo Pathway TEAD Reporter MCF-7 luciferase assay
Format: cell-based
Conditions: Homo sapiens, MCF7, 24 h, Hippo Pathway TEAD Reporter MCF-7 cells, luciferase activity after 24 h; read-out: IC50 of the test compounds on YAP-TEAD inhibition (Group)
Procedure, shortened: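 MCF-7 cells carrying a TEAD-responsive firefly luciferase reporter, with nuclear YAP1 driving constitutive expression, were treated the day after plating with compounds (11 concentrations, 4 replicates; 0.1% DMSO control). After 24 h, luciferase was read by ONE-Glo luminescence and IC50 determined.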

| SMILES | IC50 |
| --- | --- |
| COc1ccc(Oc2ccc(F)cn2)cc1NC(=O)C1CCC(=O)N1C (centres unmarked) [Compound 202, N-(5-((5-Fluoropyridin-2-yl)oxy)-2-methoxyphenyl)-1-methyl-5-oxopyrrolidine-2-carboxamide] | 301 to 2000 nM |
| O=C1CCC(C(=O)Nc2cc(COc3cccc(F)c3)cc3c2OCCO3)N1 (centres unmarked) [Compound 57, N-(7-((3-Fluorophenoxy)methyl)-2,3-dihydrobenzo[b][1,4]dioxin-5-yl)-5-oxopyrrolidine-2-carboxamide] | 50 to 300 nM |
| COc1ccc(/C=C/C2CCC(F)(F)CC2)cc1NC(=O)C1CCC(=O)N1 (centres unmarked) [Compound 21, (E)-N-(5-(2-(4,4-Difluorocyclohexyl)vinyl)-2-methoxyphenyl)-5-oxopyrroli-dine-2-carboxamide] | < 50 nM |
| COc1ccc(Oc2ccc(F)c(F)c2)cc1NC(=O)C1CCCC(=O)N1C (centres unmarked) [Compound 321, N-(5-(3,4-Difluorophenoxy)-2-methoxyphenyl)-1-methyl-6-oxopiperidine-2-carboxamide] | 50 to 300 nM |
| COc1cc(OC)c(NC(=O)C2CCC(=O)N2)cc1COc1cccc(F)c1 (centres unmarked) [Compound 4, N-(5-((3-Fluorophenoxy)methyl)-2,4-dimethoxyphenyl)-5-oxopyrrolidine-2-carboxamide] | 301 to 2000 nM |
| CN1C(=O)NC[C@H]1C(=O)Nc1cc(Oc2ccc(C(F)(F)F)cn2)cc2c1OCO2 [Compound 180, (S)-3-Methyl-2-oxo-N-(6-((5-(trifluoromethyl)pyridin-2-yl)oxy)benzo-[d][1,3]dioxol-4-yl)imidazolidine-4-carboxamide] | < 50 nM |
| COc1ccc(OC2C=CCCC2)cc1NC(=O)C1CCC(=O)N1C (centres unmarked) [Compound 287, N-(5-(Cyclohex-2-en-1-yloxy)-2-methoxyphenyl)-1-methyl-5-oxopyrrolidine-2-carboxamide] | 301 to 2000 nM |
| CN1C(=O)CCC1C(=O)Nc1cc(Oc2ccc(C(F)(F)F)cc2)ccc1-c1nnco1 (centres unmarked) [Compound 83, N-(2-(1,3,4-Oxadiazol-2-yl)-5-(4-(trifluoromethyl)phenoxy)phenyl)-1-methyl-5-oxopyrrolidine-2-carboxamide] | 50 to 300 nM |
| COc1ccc(/C=C/c2cccc(F)c2)cc1NC(=O)C1CCC(=O)N1C (centres unmarked) [Compound 254, (E)-N-(5-(3-Fluorostyryl)-2-methoxyphenyl)-1-methyl-5-oxopyrrolidine-2-carboxamide] | 50 to 300 nM |
| COc1ccc(Oc2ccc(C(F)F)cc2)cc1NC(=O)C1CCC(=O)N1C (centres unmarked) [Compound 292, N-(5-(4-(Difluoromethyl)phenoxy)-2-methoxyphenyl)-1-methyl-5-oxo-pyrrolidine-2-carboxamide] | < 50 nM |
| COc1ccc(/C=C/C2CCC(F)(F)CC2)cc1NC(=O)C1CNC(=O)N1 (centres unmarked) [Compound 404, (E)-N-(5-(2-(4,4-Difluorocyclohexyl)vinyl)-2-methoxyphenyl)-2-oxo-imidazolidine-4-carboxamide] | 50 to 300 nM |
| COc1ccc(Oc2ccc(C(F)(F)F)cc2)cc1NC(=O)[C@H]1CCC(=O)N1 (stereo in doubt) [Compound 45, N-(2-Methoxy-5-(4-(trifluoromethyl)phenoxy)phenyl)-5-oxopyrrolidine-2-carboxamide] | < 50 nM |
| CCN1C(=O)CCC1C(=O)Nc1cc(Oc2cccc(C(F)(F)F)c2)ccc1OC (centres unmarked) [Compound 37, 1-Ethyl-N-(2-methoxy-5-(3-(trifluoromethyl)phenoxy)phenyl)-5-oxopyrrolidine-2-carboxamide] | 50 to 300 nM |
| COc1cc(NC(=O)C2CCC(=O)N2)cc(Oc2cccc(C(F)(F)F)c2)c1 (centres unmarked) [Compound 261, N-(3-Methoxy-5-(3-(trifluoromethyl)phenoxy)phenyl)-5-oxopyrrolidine-2-carboxamide] | 50 to 300 nM |
| COc1ccc(OC2CCC(C)(C)CC2)cc1NC(=O)C1CCC(=O)N1C (centres unmarked) [Compound 296, N-(5-((4,4-Dimethylcyclohexyl)oxy)-2-methoxyphenyl)-1-methyl-5-oxo-pyrrolidine-2-carboxamide] | < 50 nM |
| COc1ccc(Oc2ccc(F)c(F)c2)cc1NC(=O)[C@@H]1CCC(=O)N1C [Compound 94, (S)—N-(5-(3,4-Difluorophenoxy)-2-methoxyphenyl)-1-methyl-5-oxopyrrolidine-2-carboxamide] | 50 to 300 nM |
| O=C1CCC(C(=O)Nc2cc(Oc3cccc(C(F)(F)F)c3)cc3c2OCO3)N1 (centres unmarked) [Compound 33, 5-Oxo-N-(6-(3-(trifluoromethyl)phenoxy)benzo[d][1,3]dioxol-4-yl)pyrrolidine-2-carboxamide] | < 50 nM |
| COc1ccc(Oc2ccc(C(F)(F)F)cc2)cc1NC(=O)C1CCC(=O)N1c1cnn(C)c1 (centres unmarked) [Compound 137, N-(2-Methoxy-5-(4-(trifluoromethyl)phenoxy)phenyl)-1-(1-methyl-1H-pyrazol-4-yl)-5-oxopyrrolidine-2-carboxamide] | 301 to 2000 nM |
| CN1C(=O)CCC1C(=O)Nc1cc(Oc2ccc(F)cc2)cc(C(F)(F)F)c1 (centres unmarked) [Compound 303, N-(3-(4-Fluorophenoxy)-5-(trifluoromethyl)phenyl)-1-methyl-5-oxopyrrolidine-2-carboxamide] | 301 to 2000 nM |

| SMILES | IC50 |
| --- | --- |
| COc1ccc(Oc2cccc(F)c2)cc1NC(=O)C1(C)CCC(=O)N1 (centres unmarked) [Compound 15, N-(5-(3-Fluorophenoxy)-2-methoxyphenyl)-2-methyl-5-oxopyrrolidine-2-carboxamide] | 301 to 2000 nM |
| O=C(Nc1cc(Oc2ccc(C(F)(F)F)cn2)cc2c1OCC2)[C@@H]1CCC(=O)N1C1CC1 [Compound 165, (S)-1-Cyclopropyl-5-oxo-N-(5-((5-(trifluoromethyl)pyridin-2-yl)oxy)-2,3-dihydrobenzofuran-7-yl)pyrrolidine-2-carboxamide] | < 50 nM |
| COCC(=O)N1C(=O)CCC1C(=O)Nc1cc(Oc2ncc(C(F)(F)F)cc2F)ccc1OC (centres unmarked) [Compound 334, N-(5-((3-Fluoro-5-(trifluoromethyl)pyridin-2-yl)oxy)-2-methoxyphenyl)-1-(2-methoxyacetyl)-5-oxopyrrolidine-2-carboxamide] | 50 to 300 nM |
| CN1C(=O)CC[C@H]1C(=O)Nc1cc(Oc2ccc(F)c(F)c2)cc2c1OCC2 [Compound 100, (S)—N-(5-(3,4-Difluorophenoxy)-2,3-dihydrobenzofuran-7-yl)-1-methyl-5-oxopyrrolidine-2-carboxamide] | < 50 nM |
| COc1ccc(Oc2ccc(OC(C)C)cc2)cc1NC(=O)C1CCC(=O)N1 (centres unmarked) [Compound 301, N-(5-(4-Isopropoxyphenoxy)-2-methoxyphenyl)-5-oxopyrrolidine-2-carboxamide] | 301 to 2000 nM |
| COc1ccc(Oc2ccc(C(F)(F)F)c(F)n2)cc1NC(=O)C1CCC(=O)N1C (centres unmarked) [Compound 400, N-(5-((6-Fluoro-5-(trifluoromethyl)pyridin-2-yl)oxy)-2-methoxyphenyl)-1-methyl-5-oxopyrrolidine-2-carboxamide] | < 50 nM |
| COc1ccc(Oc2ccc(Cl)cn2)cc1NC(=O)C1CCC(=O)N1C (centres unmarked) [Compound 203, N-(5-((5-Chloropyridin-2-yl)oxy)-2-methoxyphenyl)-1-methyl-5-oxo-pyrrolidine-2-carboxamide] | 301 to 2000 nM |
| COc1ccc(Oc2cccc(C#N)c2)cc1NC(=O)C1CCC(=O)N1C (centres unmarked) [Compound 390, N-(5-(3-Cyanophenoxy)-2-methoxyphenyl)-1-methyl-5-oxopyrrolidine-2-carboxamide] | 301 to 2000 nM |
| COc1ccc(Oc2ccc(C(F)(F)F)cc2)cc1NC(=O)C1CCN(S(C)(=O)=O)C1 (centres unmarked) [Compound 326, N-(2-Methoxy-5-(4-(trifluoromethyl)phenoxy)phenyl)-1-(methylsulfonyl)-pyrrolidine-3-carboxamide] | 301 to 2000 nM |
| COc1ccc(Oc2cc(C(F)(F)F)ccn2)cc1NC(=O)C1CCC(=O)N1C (centres unmarked) [Compound 201, N-(2-Methoxy-5-((4-(trifluoromethyl)pyridin-2-yl)oxy)phenyl)-1-methyl-5-oxopyrrolidine-2-carboxamide] | 301 to 2000 nM |
| COc1ccc(Oc2ccc(Cl)cc2)cc1NC(=O)[C@@H]1CCC(=O)N1C [Compound 307, (S)—N-(5-(4-Chlorophenoxy)-2-methoxyphenyl)-1-methyl-5-oxopyrrolidine-2-carboxamide] | < 50 nM |
| CN1C(=O)NC[C@H]1C(=O)Nc1cc(Oc2ccc(C(F)(F)F)cn2)ccc1O [Compound 373, (S)—N-(2-Hydroxy-5-((5-(trifluoromethyl)pyridin-2-yl)oxy)phenyl)-3-methyl-2-oxoimidazolidine-4-carboxamide] | 301 to 2000 nM |
| COc1ccc(/C=C/C2CCC(F)(F)CC2)cc1NC(=O)[C@H]1CCC(=O)N1C [Compound 23] | < 50 nM |
| COc1ccc(Sc2ccc(F)c(F)c2)cc1NC(=O)C1CCC(=O)N1C (centres unmarked) [Compound 297, N-(5-((3,4-Difluorophenyl)thio)-2-methoxyphenyl)-1-methyl-5-oxopyrrolidine-2-carboxamide] | < 50 nM |
| COc1cc(NC(=O)[C@H]2CCC(=O)N2C)cc(Oc2ccc(F)c(F)c2)c1 [Compound 285, (R)—N-(3-(3,4-Difluorophenoxy)-5-methoxyphenyl)-1-methyl-5-oxopyrrolidine-2-carboxamide] | 50 to 300 nM |
| COc1ccc(OCc2cccc(C(F)(F)F)c2)cc1NC(=O)C1CCC(=O)N1 (centres unmarked) [Compound 52, N-(2-Methoxy-5-((3-(trifluoromethyl)benzyl)oxy)phenyl)-5-oxopyrrolidine-2-carboxamide] | 50 to 300 nM |
| COc1ccc(Oc2ccc(C(F)(F)F)cc2O)cc1NC(=O)C1CCC(=O)N1C (centres unmarked) [Compound 411, N-(5-(2-Hydroxy-4-(trifluoromethyl)phenoxy)-2-methoxyphenyl)-1-methyl-5-oxopyrrolidine-2-carboxamide] | 301 to 2000 nM |
| COc1ccc(Oc2ccc(F)c(F)c2)c(C)c1NC(=O)C1CCC(=O)N1C (centres unmarked) [Compound 389, N-(3-(3,4-Difluorophenoxy)-6-methoxy-2-methylphenyl)-1-methyl-5-oxopyrrolidine-2-carboxamide] | 301 to 2000 nM |
| CN1C(=O)CCC1C(=O)Nc1cc(Oc2ccc(C(F)(F)F)cc2)ccc1F (centres unmarked) [Compound 75, N-(2-Fluoro-5-(4-(trifluoromethyl)phenoxy)phenyl)-1-methyl-5-oxopyrrolidine-2-carboxamide] | < 50 nM |
